* marks the point of attachment. NOTA = O=C(O)CN1CCN(CC(=O)O)CCN(CC(=O)*)CC1
Molecular target: T1, granzyme B (Mus musculus, UniProt P04187)
T1 construct: from tissue; host or cells: intracranial GSC005-luc tumour in C57BL/6 mice; granzyme B comes from the host's cytotoxic immune cells
T1 sequence (P04187 21-247): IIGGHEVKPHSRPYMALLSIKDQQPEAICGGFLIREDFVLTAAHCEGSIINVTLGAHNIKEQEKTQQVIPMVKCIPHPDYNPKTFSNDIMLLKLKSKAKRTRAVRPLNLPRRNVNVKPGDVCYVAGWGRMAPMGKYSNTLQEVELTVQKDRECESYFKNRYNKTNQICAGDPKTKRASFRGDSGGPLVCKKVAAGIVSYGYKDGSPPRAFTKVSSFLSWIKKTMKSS
Format: in vivo, mouse (C57BL/6, orthotopic GSC005-luc GBM)
From the text: Dynamic [^64Cu]-NOTA-GZP PET was collected using a preclinical small animal PET/CT imaging system (GNEXT, Sofie Bioscience, Culver City, CA) seven days from the start of therapy. Scan consisted of an 80-min list-mode acquisition, with 100 ± 10 μCi (3.7 ± 0.37 MBq) of [^64Cu]-NOTA-GZP being administered via tail-vein catheter followed by a saline flush. Subsequently, a 5-min computed tomography (CT, voltage, 80 kVp; current, 150 μA) scan was collected for anatomical reference. A subset of mice (N = 5 treatment, 3 controls) was humanely euthanized, and brains were excised for a 1 h ex vivo PET/CT brain scan and, upon completion, placed in formalin and fixed overnight. Remaining mice were monitored longitudinally for survival.
Dynamic PET data was reconstructed using a 3D ordered-subset expectation maximization algorithm (24 subsets, 3 iterations) with a reconstructed voxel size of 0.5 × 0.5 × 0.5 mm^3 based on a 12 × 10 s, 6 × 30 s, 5 × 60 s, 10 × 300 s, 1 × 1200 s framing sequence (Figure 2A). PET sequences were rigidly registered to the reference anatomical CT scan. Voxel-wise conversion to standardized uptake value (SUV) was then performed based on the following equation:
GSC005-luc orthotopic mouse models were developed and treated with single dose M002 followed by a dose of anti-PD1 on days 1, 4 and 7 (N = 22), or saline at similar timepoints (N = 9). 80-min dynamic [^64Cu]-NOTA-GZP PET/CT scans were performed at day 4 and 7 following treatment, with tumor and contralateral brain time activity curves being fitted to a 2TCM as selected based on prior comparative assessment. Metrics for average SUV, k1, k2, k3 and k4 were quantified on the tumor region with additional normalization to contralateral healthy brain (TBR).
In addition, anatomical MRI scans were collected prior to the start of treatment (D-1), and at days 3, 6 and 13 following treatment for anatomical PET/CT reference and monitoring of tumor volumes. Longitudinal monitoring was performed via BLI every three days. […] Response was defined based on a threshold of less than 20% increase in BLI signal one month following initial immunotherapy administration as previously reported.

- k3 (tracer binding rate), contralateral brain (2TCM, combination immunotherapy-treated mice, four days following therapy, contralateral brain): 0.04 ± 0.05 min⁻¹
- k3 (tracer binding rate), tumor (2TCM, combination immunotherapy-treated mice, four days following therapy, tumor): 0.13 ± 0.8 min⁻¹
Substance: {NOTA}-AGGIEFD-aldehyde [[^64Cu]-NOTA-GZP, NOTA-Ala-Gly-Gly-Ile-Glu-Phe-Asp-CHO (NOTA-GZP) radiolabeled with ^64Cu; granzyme B specific PET imaging agent]
- SUV TBR (mouse, in vivo): 2.50 ± 1.68
- k1 TBR (mouse, in vivo): 1.18 ± 0.75
